According to patent publication US7897620B2, “Methods of using anti-inflammatory compounds” (Cambridge Enterprise Limited, priority 2007, dated 2011):
Read-outs that look alike come from different tables or passages of the source.

Tests used:
[1] = Pharmacokinetics following a single dose in rat (LC-MS/MS of blood, one-compartment model); format: in vivo; conditions: for AUC(0-inf): single oral dose 3 mg/kg in 1% CMC, read-out: Exposure (AUC 0->infinity) (converted); for clearance: read-out: Clearance; for bioavailability: po, 3 mg/kg
Protocol: Compounds were administered as a single dose (either 1 mg/kg bodyweight in 5% DMSO via the intravenous route or 3 mg/kg in 1% carboxymethylcellulose via the oral route) to three adult rats (using different rats for each compound and each route of administration).
Blood was then sampled at various time points (including just prior to dose administration) out to 24 hrs post dose, and the level of the various compounds was assessed using a validated LC-MS/MS assay. Briefly, 3-5 μl of the deproteinised sample was applied to a Waters Atlantis (C18 20×2.1 mm, 3 μm bead size) reverse phase chromatography column equilibrated in 0.1% formic acid in 95:5 water:actetonitrile. Over 3.5 minutes bound material was gradient eluted reaching 0.1% formic acid in 5:95 water:acetonitrile, followed by a step gradient back to 0.1% formic acid in 95:5 water:acetonitrile. The column eluent was then directed to an Applied Biosystems API 4000/3200 QTrap MS/MS mass spectrometer, with a Turbolonspray™ ion source operating in positive ion mode. The interface temperature was set at 650° C., with a 40 ms dwell time for each MRM transition, monitoring the following ions:
The internal standard in each determination was the related compound (S)-3-(2′,2′-dimethylpropanoylamino)-caprolactam, which was spiked into the sample prior to deproteinization. The lower limit of quantitation (LLOQ) for this assay was 2.4 ng/ml for each compound except (I′), where it was 38.1 ng/ml.
Following LC-MS/MS analysis of each collected sample, the pharmacokinetic disposition of the compound was modelled using Kinetica software, a well known software package for such applications.

[2] = Identification of the primary metabolites in pooled 24 h urine (LC-MS-MS full scan); format: in vivo; conditions: rat, single oral dose 3 mg/kg in 1% CMC, qualitative
Protocol: Urine was collected from rats exposed to a single oral dose (3 mg/kg in 1% CMC) of each compound over a 24 hour period in metabolic cages. The pooled urine sample was then subjected to full scan mass spectral analysis, using the same LC-MS conditions as described in example 1 above. Further MS-MS analysis of the product ions was then performed, and likely fragmentations/re-arrangements assigned from the publicly available Metabolite ID database.
For the major metabolites, the assigned structures were confirmed by synthesis of authentic samples, using methods well known in the art, which were subject to LC-MS-MS analysis under the same conditions as the urine samples.
Note that metabolite ID studies provide only qualitative estimates of the relative amounts of the different metabolites present, and separately validated assays with appropriate internal standards would be required to quantitate each metabolite species.
The detected metabolites, in rank order of concentration detected are shown in FIG. 2 for the five compounds analysed. It is important to note that the methodology used here is not necessarily exhaustive, and further (particularly minor) metabolites may also be present which were below the detection limits for the methods applied here. As a general rule, it can be assumed that metabolites representing 10% or more of the injected dose will be detected (though not necessarily structurally identified) by the methods used here).

[3] = system: IL-8 induced neutrophil migration; experiment: ChemoTx transwell migration assay, IL-8 induced migration of neutrophils; format: cell-based; conditions: maximal dose of chemoattractant, read-out: ED50 IL-8 neutrophils
Protocol: In principle, this assay consists of two chambers separated by a porous membrane. The chemoattractant is placed in the lower compartment and the cells are placed in the upper compartment. After incubation for a period at 37° C. the cells move towards the chemoattractant, and the number of cells in the lower compartment is proportional to the chemoattractant activity (relative to a series of controls).
Next, the chemoattractant solution to be placed in the lower compartment is prepared. For example, MCP-1 is diluted in GBSS+BSA to give a final concentration of 25 ng/ml. This is divided into two pots, as for the cell suspension. To one pot, the test compound is added to the same final concentration as was added to the cell suspension, while to the other pot an equal volume of GBSS+BSA plus vehicle as appropriate (e,g. not more than 1% DMSO) is added. Alternatively, other chemokines may be used (SDF-1α at 7.5 ng/ml; RANTES at 50 ng/ml; IL-8 at 10 ng/ml using neutrophils as the target cell population). In each case it is important to determine (in a separate experiment) the concentration of each chemokine which causes maximal stimulation of migration of the chosen target leukocyte population. […]
The number of cells migrated into the lower chamber under each condition can then be determined by a number of methods, including direct counting, labelling with fluorescent or radioactive markers or through the use of a vital dye. […] 3 μl of stock MTT solution are added to each well, and then the plate is incubated at 37° C. for 1-2 hours during which time dehydrogenase enzymes within the cells convert the soluble MTT to an insoluble blue formazan product that can be quantified spectrophotometrically. […]
At the end of this incubation, the liquid is carefully removed from the lower chambers, taking care not to disturb the precipitated formazan product. After allowing to air dry briefly, 20 μl of DMSO is added to each lower chamber to solubilise the blue dye, and absorbance at 595 nm is determined using a 96-well plate reader. […]

[4] = blood, rat, averaged across three rats
[5] = plasma, iv, 1 mg/kg, rat, one-compartment model, averaged across three rats, read-out: t½ (mins) dominant plasma half-life
[6] = rat, blood, iv, 1 mg/kg, rat, one-compartment model, averaged across three rats
[7] = rat, blood, iv, 1 mg/kg, rat, one-compartment model, averaged across three rats, read-out: Vss (L/kg) volume of distribution
[8] = rat, blood, rat, 1 mg/kg iv in 5% DMSO and 3 mg/kg oral in 1% CMC, one-compartment model, averaged across three rats, read-out: F (%) oral bioavailability
[9] = blood, Rat, Intravenous PK (1 mg/kg), read-out: Half-life
[10] = blood, Rat, Oral PK (3 mg/kg), read-out: Half-life
[11] = rat, blood, iv, 1 mg/kg, Rat, Intravenous PK (1 mg/kg)
[12] = rat, blood, iv, 1 mg/kg, Rat, Intravenous PK (1 mg/kg), read-out: Vss
[13] = rat, blood, Rat, Oral PK (3 mg/kg), read-out: Bioavailability (%)
[14] = rat, one-compartment model, averaged across three rats

| SMILES | AUC(0-inf) [1, 4] [ng·h/mL] | half-life [1, 5] [min] | clearance [1, 6] [mL/min/kg] | Vd [1, 7] [L/kg] | bioavailability [1, 8] [%] | major metabolite / route of metabolism detected in urine [2] | half-life [1, 9] [min] | AUC ([1]; blood, Rat, Oral PK (3 mg/kg)) [ng·h/mL] | Tmax ([1]; blood, Rat, Oral PK (3 mg/kg)) [min] | half-life [1, 10] [min] | clearance [1, 11] [mL/min/kg] | Vd [1, 12] [L/kg] | bioavailability [1, 13] [%] | EC50 [3] [nM] | further results |
| --- | --- | --- | --- | --- | --- | --- | --- | --- | --- | --- | --- | --- | --- | --- | --- |
| CC(C)(C)S(=O)(=O)N[C@H]1CCCCNC1=O [(IV), 3-(1′,1′-dimethylethylsulfonylamino)-caprolactam] | 690 | 19 | 32 | 0.6 | 45 | the major metabolite could not be identified |  |  |  |  |  |  |  |  |  |
| O=C1NCCCC[C@@H]1NC(=O)C12CC3CC(CC(O)(C3)C1)C2 [(V), 3-(3′-hydroxyadamantyl-1-carbonylamino)-caprolactam] | 952 | 24 | 31 | 1.4 | 59 | the glucuronidated compound was the major metabolite | 24 | 952 | 15 | 24 | 33 | 0.8 | 59 | 0.5 |  |
| O=C1NCCCC[C@@H]1NC(=O)C12CC3CC(CC(C3)C1)C2 [(II), 3-(adamantane-1-carbonylamino)-caprolactam] | 7.95 |  | 84 |  |  | cytochrome P450-mediated hydroxylation |  |  |  |  |  |  |  | 0.6 | F (%) oral bioavailability ([1]; rat, 1 mg/kg iv in 5% DMSO and 3 mg/kg oral in 1% CMC, one-compartment model, averaged across three rats): <1%; Vss (L/kg) volume of distribution [1, 14]: 0.8 L/kg; t½ (mins) dominant plasma half-life [1, 14]: 16 min |
| CC(C)(C)C(=O)N[C@H]1CCCNC1=O [Compound (I′), 3-(2′,2′-dimethylpropanoylamino)-tetrahydropyridin-2-one] | 15600 | 196 |  | 0.7 | 69 | no significant metabolites of (I′) were detected in urine | 196 | 15600 | 15 to 120 | 226 | 2.6 | 0.7 | 81 | 0.6 | half-life ([1]; plasma, intravenous, 1 mg/kg, rat, read-out: plasma half-life): > 180 min; clearance, times lower than for the other lactam BSCIs ([1]; rat): more than 10 fold; clearance ([1]; rat, blood, intravenous, 1 mg/kg, rat, one-compartment model, averaged across three rats): 2.6 mL/min/kg; exposure relative to the next best compound (V) ([1]; rat, oral): ~20 fold; plasma half-life, fold longer ([1]; rat, versus the other compounds examined): 10 fold |
